In patent US5747503A, “Selective inhibitors of biogenic amine transporters” (priority 1996, dated 1998):
Several values for one entry are separate records, joined by “and”; a condition that tells them apart may be missing. Identical values can stand only once. Counter-ions that a name gives are not always drawn. Like-named read-outs stand apart in the source and are kept apart here.

How the values were obtained:
[1] = target: PCP site 1; assay: [^3 H](+)-MK801 binding to PCP site 1; design: species or system guinea pig
Experimental: Large batches of frozen membranes were prepared with minor modifications of published procedures (Rothman, et al. (1989), supra). Twenty to thirty frozen guinea pig brains with cerebellum were thawed for 15 minutes and homogenized with a Polytron in ice-cold 5 mM Tris-HCl, pH 8.0 (10 ml/brain). The homogenate was centrifuged at 37,000×g for 10 minutes, and the pellet was washed by resuspension in the same volume of buffer followed by recentrifugation. The pellets were resuspended in an equal volume of 5 mM Tris-HCl, pH 8.0, and the concentration was adjusted to 50 mM by the addition of 1M Tris-HCl, pH 8.0. The homogenate was centrifuged for 10 min at 37,000×g. The pellets were then washed three times by resuspension and centrifugation using 50 mM Tris-HCl, pH 8.0. The final pellets were resuspended in the Tris-HCl buffer (0.5 ml/brain), pooled and 1 ml aliquots were distributed to microfuge tubes, which were stored at -70° for assay. […]
(§1) Inhibition curves were fit to the two parameter logistic equation for the best-fit estimates of the IC50 using nonlinear least squares curve fitting methods as previously described (Rothman et al. (1993), supra); Jones, S. M. and Rogawski, M. A. Mol. Neuropharmacol. 2: 303-310 (1992)).
(§2) ^a The binding assays for PCP (site 2) and PCP (site 1) were conducte
(§3) as previously reported (Rothman, R. B., et al., In: Multiple Sigma and PC
(§4) Receptor Ligands: Mechanisms for Neuromodulation and Protection 307-330
(§5) (Domino, E. F. and Kamenka, J. M., eds., 1992) using [^3 H]TCP in the
(§6) presence of (+)MK801 for site 2 and [^3 HMK801 for site 1 except that

[2] = test system: PCP site 2; format: binding, guinea pig
Experimental: Large batches of frozen membranes were prepared with minor modifications of published procedures (Rothman, et al. (1989), supra). Twenty to thirty frozen guinea pig brains with cerebellum were thawed for 15 minutes and homogenized with a Polytron in ice-cold 5 mM Tris-HCl, pH 8.0 (10 ml/brain). The homogenate was centrifuged at 37,000×g for 10 minutes, and the pellet was washed by resuspension in the same volume of buffer followed by recentrifugation. The pellets were resuspended in an equal volume of 5 mM Tris-HCl, pH 8.0, and the concentration was adjusted to 50 mM by the addition of 1M Tris-HCl, pH 8.0. The homogenate was centrifuged for 10 min at 37,000×g. The pellets were then washed three times by resuspension and centrifugation using 50 mM Tris-HCl, pH 8.0. The final pellets were resuspended in the Tris-HCl buffer (0.5 ml/brain), pooled and 1 ml aliquots were distributed to microfuge tubes, which were stored at -70° for assay.
The [^3 H]TCP binding assay for PCP site 2 was conducted with minor modifications of published protocols (Rothman, et al. (1989), supra). Briefly, 12×75 mm polystyrene test tubes were prefilled with 100 μl of [^3 H]TCP (2 nM final concentration) in a protease inhibitor cocktail (PIC) containing 5000 nM (+) -MK801, 100 μl of distilled H2 O or drug (in distilled H2 0), 50 μl of buffer (5 mM Tris-HCL, pH 8.0), and 750 μl of membrane (0.5-1.0 mg/ml protein, in 5 mM Tris-HCl, pH 8.0). […] The protease inhibitor cocktail was composed of 25 μg/ml leupeptin, 25 μg/ml chymostatin, 0.1 mM EDTA, and 0.1 mM ethylene glycol-bis-(beta-aminoethyl-ether)-N,N,N',N'-tetraacetic acid (EGTA). The incubation time was 18-24 hours at 4° C. (steady state) in a final volume of 1 ml. Triplicate samples were filtered with an MR24 Brandel Cell Harvester and washed with two 5 ml aliquots of ice cold buffer. Whatman GF/B filters were presoaked in buffer containing 2% polyethylenimine. The tritium retained on the filters was measured using a Taurus scintillation counter at 44% efficiency after an overnight extraction into ICN Cytoscint cocktail. Non specific binding was determined using 10 μM of TCP. Protein was determine using the method of Lowry, et al., supra.
as §1, §2, §3, §4, §5, §6
the [^3 H]TCP assays were terminated after 18-24 hours of incubation

[3] = test system: PCP site 2; settings: guinea pig brain membranes; literature; cited from earlier work
[4] = Table 1, [^3 H]TCP in presence of (+)MK801, 18-24 hours at 4° C.

SMILES	IC50 ([1]; Table 3, guinea pig membranes)	IC50 ([2]; Table 3, guinea pig membranes)	further results
CN1[C@@H](Cc2ccc(Cl)cc2)C[C@@H]2Cc3ccccc3[C@@H]21 (racemic) [RTI-4793-45, (2RS,3aSR,8bRS)-1,2,3,3a,4,8b-Hexahydro-2-(4-chlorobenzyl)-1-methylindeno-[1,2-b]pyrrole Hydrochloride]	> 2000 nM	254 ± 18 nM	
CN1CC[C@@H]2Cc3ccccc3[C@@H]21 (relative stereo) [3a]			affinity for PCP site 1 in words [1]: low affinity at both sites; IC50 ([1]; Table 1, [^3 H]MK801): > 20000 nM; affinity/selectivity for PCP site 2 in words [2]: low affinity at both sites; IC50 [2, 4]: > 10000 nM
CCOC(=O)[C@H]1C[C@@H]2Cc3ccccc3[C@@H]2N1C (relative stereo) [3d]			IC50 ([1]; Table 1, [^3 H]MK801): > 20000 nM; IC50 [2, 4]: 16700 nM
CC[C@H]1C[C@@H]2Cc3ccccc3[C@@H]2N1C (relative stereo) [3e]			affinity for PCP site 1 in words [1]: low affinity at both sites; IC50 ([1]; Table 1, [^3 H]MK801): > 20000 nM; IC50 [2, 4]: 326 ± 49 nM; relative potency for site 2 versus 3b ([2]; versus 3b): approximately ten-times less than that of 3b
CN1[C@H](Cc2c[nH]c3ccccc23)C[C@H]2Cc3ccccc3[C@H]21 (relative stereo) [RTI-4793-44, (2RS, 3aSR, 8bRS) -1,2,3,3a, 4,8b-Hexahydro-2-(3-methanoindole)-1-methylindeno-[1,2-b]pyrrole Hydrochloride]	> 2000 nM	114 ± 12 nM	
COc1ccc(C[C@@H]2C[C@H]3Cc4ccccc4[C@H]3N2C)cc1 (relative stereo) [RTI-4793-46, (2RS,3aSR,8bRS)-1,2,3,3a,4,8b-Hexahydro-2-(4-methoxybenzyl)-1-methylindeno[1,2-b1pyrrole Hydrochloride]	> 2000 nM	148 ± 23 nM	
c1ccc(CC2CC3CN2Cc2ccccc23)cc1 (single isomer, unassigned; (+)) [(+)-RTI-4793-41]	> 2000 nM	4.4 ± 0.7 nM	IC50 ([2]; Table 3, guinea pig membranes, listed as (+) optical isomer of RTI-4793-41): 4.4 nM
c1ccc(CC2CC3CN2Cc2ccccc23)cc1 (single isomer, unassigned; (-)) [(-)-RTI-4793-41]	> 2000 nM	28.9 ± 3 nM	
CN1[C@@H](Cc2ccccc2)C[C@@H]2Cc3ccccc3[C@@H]21.O=C(O)c1ccc(O)cc1O [(-)-RTI-4793-14]	> 2000 nM	316 ± 58.7 nM	
c1ccc(CC2CC3CN2Cc2ccccc23)cc1 (stereo not drawn) [RTI-4793-41]	> 2000 nM	15 nM and 15.6 nM	affinity/selectivity for PCP site 2 in words [2]: high affinity and selectivity
BrC1CC2CN(Cc3ccccc32)C1c1ccccc1 (stereo not drawn) [RTI-4793-47]	> 2000 nM	68.8 ± 11.5 nM	
c1ccc(C2CCC3CN2Cc2ccccc23)cc1 (stereo not drawn) [RTI-4793-48]	> 2000 nM	42 nM and 42.3 nM	affinity/selectivity for PCP site 2 in words [2]: high affinity and selectivity
COc1ccc(CC2CC3CN2Cc2ccccc23)cc1 (stereo not drawn) [RTI-4793-49]	> 2000 nM	106 ± 13.8 nM	
Fc1ccc(CC2CC3CN2Cc2ccccc23)cc1 (stereo not drawn) [RTI-4793-50]	> 2000 nM	73.5 ± 9 nM	
c1ccc(CCC2CC3CN2Cc2ccccc23)cc1 (stereo not drawn) [RTI-4793-51]	> 2000 nM	289 ± 22 nM	
c1ccc(CCCCC2CC3CN2Cc2ccccc23)cc1 (stereo not drawn) [RTI-4793-52]	> 2000 nM	302 ± 28 nM	
c1csc(CC2CC3CN2Cc2ccccc23)c1 (stereo not drawn) [RTI-4793-55]	> 2000 nM	43.2 ± 6.58 nM	
c1csc(C2(N3CCCCC3)CCCCC2)c1 [TCP]			binding of [^3 H]TCP to two sites (PCP site 1 and PCP site 2) [3]: high affinity
